For data set [1], the system named is Caco-2. In words: Caco-2 permeability. The format is in vitro ADME. From the text: Several model systems are available, employing monolayers of various cell types, for evaluation of active transport of pharmaceutically active substances. For example, monolayers of Caco-2 intestinal epithelial cells can be used to evaluate active transport of substances between the intestine and the bloodstream. When plated on a surface which allows the flow of material from apical to basolateral and vice versa, such cells form a biological membrane which can be used to simulate physiological absorption and bio-availability. In another example, mouse brain capillary endothelial cell (MBEC) lines have been established to evaluate active transport in and out of the central nervous system. Another example of such cells is HT29 human colon carcinoma cells. Further, monolayers expressing particular transporter proteins can be established using transfected cells. For example, Sasaki et al (2002) J. Biol. Chem. 8:6497 used a double-transfected Madin-Darby canine kidney cell monolayer to study transport of organic anions.

The nature of data set [2]: PAMPA permeability. The class given is in vitro ADME. (In general: In PAMPA a lipid-coated filter parts donor from acceptor wells.)
The nature of data set [3]: Solubility. The format is physicochemical.
A short description of data set [4]: RLM stability T1/2. The class given is in vitro ADME. The note with it: rat, liver microsomes.
The nature of data set [5]: Non-specific binding. The format is in vitro ADME.
Data set [6] concerns the target PDE-1. In words: Phosphodiesterase inhibition PDE-1. The format is biochemical. On the procedure: (§1) Phosphodiesterase inhibition was determined by methods known to one of skill in the art.
Data set [7] addresses PDE-3. Briefly: Phosphodiesterase inhibition PDE-3. The format is biochemical. The method, then:
as §1

The target in data set [8] is PDE-5 (Bos taurus, UniProt Q28156). In words: Phosphodiesterase inhibition PDE-5 bovine. The format is biochemical. The method, then: as §1
The target of data set [9] is PDE5 (Homo sapiens, UniProt O76074). In words: Phosphodiesterase inhibition PDE-5 human. The class given is biochemical. On the procedure:
as §1

Data set [10] concerns the target PDE-6. In words: Phosphodiesterase inhibition PDE-6. The class given is biochemical. On the procedure: as §1
Data set [11] is described as follows: Cytotox GC50. The format is cell-based.
Data set [12] in a line: in vitro.
Data set [13] in a line: Cytotox LC50. The note with it: read-out: Cytotox LC50 Acute.
[14] abbreviates: pH 2.7, aqueous buffer, read-out: Solubility pH 2.7.
Setting [15] is: pH 7.4, aqueous buffer, read-out: Solubility pH 7.4.

Structures are written as SMILES. In brackets after ≈: the same amount, converted by molar mass. Like-named read-outs stand apart in the source and are kept apart here. Where only a bound is given, the exact number is not on record here.

As usually defined, the solubility is the dissolved amount per volume that the medium holds. The half-life is the time in which the quantity being followed falls by half. High values mean slow decline, low ones rapid decline. As usually defined, the IC50 is the concentration that gives 50% inhibition. As to `CCCc1nc(C)c2c(=O)[nH]c(-c3cc(S(=O)(=O)N(C)CC(=O)N(C)C)ccc3OCC)nn12` [Compound 1], the “Caco-2 AtoB” value in [1] is recorded as 17.46 10^−6. The “Caco-2 BtoA” value in data set [1] is given as 48.88 10^−6. Also, the “PAMPA Hex” value in data set [2] is on record as 5.49 10^−6. Besides, in data set [2] (Lec), the “PAMPA Lec” value was 0.128 10^−6. The solubility in data set [3] (setting [14]) was above 100 µM; in data set [3] (setting [15]) it was 96.1 µM (≈ 47.2 µg/mL). This compound also registered a half-life in data set [4] of 22 min. Also, the “Non-Spec Binding” value in data set [5] stood at 11.07%. Moreover, the half-inhibitory concentration (IC50) in data set [6] stood at 25 nM; in data set [7] it was 986 nM; in data set [8], 0.122 nM; in [9] it was 0.097 nM; in data set [10] it was 3.5 nM. Moreover, the “Cytotox GC50” value in [11] was 76700 nM. Besides, the CC50 in data set [12] came to 75000 nM; in [13] it was 100000 nM.
On to `CCCc1nc(C)c2c(=O)[nH]c(-c3cc(S(=O)(=O)N(C)[C@H](C)C(=O)N(C)C)ccc3OCC)nn12` [Compound 2], for which the “Caco-2 AtoB” value in data set [1] is 33.33 10^−6. Moreover, the “Caco-2 BtoA” value in data set [1] is listed as 61.33 10^−6. Besides, the “PAMPA Hex” value in data set [2] was 18.2 10^−6. Besides, the solubility in data set [3] (setting [14]) and in [3] (setting [15]) was above 100 µM each time. Moreover, in [4], the half-life amounted to 32.6 min. The “Non-Spec Binding” value in [5] was determined as 20.7%. Further, the IC50 in data set [6] came out at 13 nM; in data set [7], 507 nM; in data set [8] it was 0.101 nM; in data set [9], 0.0395 nM; in [10] it was 0.605 nM. In [11], the “Cytotox GC50” value was 94600 nM. Besides, the CC50 is at least 100000 nM in data set [12] and 100000 nM in [13].
In the case of `CCCc1nc(C)c2c(=O)[nH]c(-c3cc(S(=O)(=O)N(C)C(C)(C)C(=O)N(C)C)ccc3OCC)nn12` [Compound 3], the “Caco-2 AtoB” value in data set [1] is 28.85 10^−6. In addition, in data set [1], the “Caco-2 BtoA” value is recorded as 58.45 10^−6. Besides, in data set [2], the “PAMPA Hex” value is 9.11 10^−6. For the same compound, the solubility in [3] (setting [14]) and in data set [3] (setting [15]) was above 100 µM each time. In [4], this compound gave a half-life of 72.7 min. Also, the “Non-Spec Binding” value in data set [5] is reported as 14.3%. Besides, the concentration for half-maximal inhibition (IC50) turned out to be 10 nM in data set [6]; 412 nM in data set [7]; 0.138 nM in data set [8]; 0.16 nM in [9]; 1.7 nM in [10]. Besides, the “Cytotox GC50” value in data set [11] is 100000 nM. Besides, the values for the CC50 in [12] and in data set [13] were at least 100000 nM and 100000 nM, respectively.

The values are drawn from patent publication US20100093719A1, “PHARMACOKINETICALLY IMPROVED COMPOUNDS” (SURFACE LOGIX, INC., priority 2005, published 2010).
